Experimental data from paper PMC11500415, “Chemical inhibition of stomatal differentiation by perturbation of the master-regulatory bHLH heterodimer via an ACT-Like domain” (Nature Communications, 2024).

How the values were obtained:
SCRM2-SPCH heterodimer = molecular target: T1, SCRM2-SPCH heterodimer (Arabidopsis thaliana, UniProt Q700C7); assay: Ratiometric BiFC in N. benthamiana leaves; assay type: cell-based; settings: 100 µM
T1 construct: heterodimerization of SCRM with full-length SPCH, MUTE, or FAMA in the context of the plant cells; we performed rBiFC assays using full-length SCRM2; nYFP (N terminus of EYFP, 174 amino acids); cYFP (C terminus of EYFP, 64 amino acids); expressed in transfected cells; host or cells: Nicotiana benthamiana leaves (Agrobacterium infiltration)
Description: For ratiometric BiFC assays, the cDNAs of SPCH, MUTE, and FAMA were cloned into the 35S CaMV promoter-driven destination vector pSPYNE, which contains the N terminus of the EYFP protein (nYFP-174 amino acids), while the cDNA of SCRM and SCRM2 was inserted into pSPYCE, which contains the C terminus of the EYFP protein (cYFP-64 amino acids) (see Supplementary Table 5 for detailed information of the constructs). The constructs were then transformed into Agrobacterium tumefaciens strain GV3101. The Agrobacterium was resuspended in infiltration buffer (10 mM MgCl2, 10 mM 2-(N-morpholino)ethanesulfonic acid [pH 5.6], and 150 µM acetosyringone). Bacterial culture densities were adjusted to a final optical density (OD600) of 1.0, and the cell suspensions were incubated at room temperature for 4 hours prior to infiltration. Equal volumes of cultures carrying the corresponding complementary pair of BiFC constructs (YFPn and YFPc), along with CaMV35S::Histone H2B-mScarlet-I3 and the silencing suppressor plasmid p19 (a gift from Dr. Sir David Baulcombe) were mixed and then co-infiltrated into 4-week-old N. benthamiana leaves. The infiltrated N. benthamiana leaves were incubated at 25 °C for 2 days. Subsequently, leaf discs were cut out and cultured in mock or in liquid 1/2 MS media in mock (DMSO) or 100 µM Stomidazolone for 1 day. Confocal imaging of N. benthamiana leaves was performed using a Leica SP8 confocal microscope using a 20X objective lens (Leica Microsystems), simultaneously capturing YFP (excitation at 518 nm and emission at 530 nm) and mScarlet-I3 (excitation at 569 nm and emission at 600 nm) differential interference contrast channels.

[1] = Stability in aqueous conditions by LC/MS; assay type: physicochemical
Method: Next, to directly address the stability of Stomidazolone in the aqueous condition we used for our bioassays, we performed liquid chromatography-mass spectrometry (LC/MS) (Supplementary Fig. 4). Stomidazolone was incubated in the 1/2 MS liquid medium (pH 5.7) at room temperature for 48 hours. […] Additionally, we tested Stomidazolone’s stability in phosphate buffer (pH 7.0).
Stomidazolone in 1/2 MS liquid media (pH 5.7) or phosphate buffer (pH 7.0) was detected by LC (Agilent 1200, Agilent Technologies, Santa Clara, USA) coupled to a single quadrupole mass spectrometer (Agilent 6130) equipped with an APCI-ES source. For the stability assay of Stomidazolone, the analytical samples were prepared as follows: 100 μL 5 mM Stomidazolone in DMSO was diluted with 900 μL 1/2MS (pH5.7) or 50 mM Phosphate buffer (pH 7.0). The Stomidazolone solutions were incubated at room temperature with rotating. At 0 or 48 hr after incubation, the 10 μL of solution were collected, diluted with water: acetonitrile;= 50:50, and applied to LC/MS. […] The mobile phase consisted of 5 mM ammonium formate: acetonitrile = 80:20 at a flow rate of 0.6 mL/min. in isocratic mode, and detected by mass spectrometry (MS). […] The electrospray ionization mass spectra (ESI-MS) recorded in the mass-to-charge ratio range from m/z 80–1000 was collected. […]

T1 sequence (Q700C7 whole entry, one chain of several): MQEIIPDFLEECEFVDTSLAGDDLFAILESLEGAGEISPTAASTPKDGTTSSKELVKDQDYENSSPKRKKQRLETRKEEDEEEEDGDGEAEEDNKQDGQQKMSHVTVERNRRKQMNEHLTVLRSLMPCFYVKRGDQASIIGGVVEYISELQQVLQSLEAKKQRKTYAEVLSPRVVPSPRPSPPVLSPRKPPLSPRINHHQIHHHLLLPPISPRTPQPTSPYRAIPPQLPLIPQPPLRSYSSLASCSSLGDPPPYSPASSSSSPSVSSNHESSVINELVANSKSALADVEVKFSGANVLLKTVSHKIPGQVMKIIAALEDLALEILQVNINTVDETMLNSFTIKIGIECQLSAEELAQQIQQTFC

In the case of `O=C1C(c2ccccc2)=NC(NS(=O)(=O)c2ccccc2)(c2ccccc2)N1S(=O)(=O)c1ccccc1` (stereo not drawn) [Stomidazolone], the “effect on heterodimerization (in words)” value (SCRM2-SPCH heterodimer) is reported as “abolished”, the “stability in 1/2 MS liquid medium (LC/MS)” value ([1]; pH 5.7, room temperature, 48 hours) is reported as “no lzx103 peak (2.13 min) was detected” and the “stability in phosphate buffer (LC/MS)” value ([1]; pH 7.0, room temperature, 48 h) is reported as “did not detect the degradation”.
